{"source": "patent US20100260675A1", "about": "“Oxytocin Receptor Antagonists and Their Use for the Treatment of Pulmonary Related Diseases” (priority 2004, published 2010)", "key": {"[1]": {"test_system": "Oxytocin Receptor mRNA in trachea", "assay": "Oxytocin Receptor RNA expression in trachea, in vivo model of acute asthma (Real Time PCR)", "details": "mice immunized i.p. day 1 and 8, challenged intranasally days 22-24, trachea day 25", "procedure": "The RNA expression of Oxytocin Receptor in an in vivo model of acute asthma was tested. The mice were immunized with ovalbumin intraperitoneal on day 1 and day 8 and then challenged intranasally on days 22, 23 and 24. On day 25, the mice were euthanized. The trachea were extracted for RNA isolation and used in Real Time PCR analysis for Oxytocin Receptor."}, "[2]": {"target": "T1, Oxytocin Receptor on human airway smooth muscle cells (HASMC) (Homo sapiens, UniProt P30559)", "T1 construct": "the Oxytocin Receptor expressed on the surface of human airway smooth muscle cells is functional; endogenous in cells; host or cells: primary human airway smooth muscle cells (HASMC)", "T1 sequence (P30559 1-389)": "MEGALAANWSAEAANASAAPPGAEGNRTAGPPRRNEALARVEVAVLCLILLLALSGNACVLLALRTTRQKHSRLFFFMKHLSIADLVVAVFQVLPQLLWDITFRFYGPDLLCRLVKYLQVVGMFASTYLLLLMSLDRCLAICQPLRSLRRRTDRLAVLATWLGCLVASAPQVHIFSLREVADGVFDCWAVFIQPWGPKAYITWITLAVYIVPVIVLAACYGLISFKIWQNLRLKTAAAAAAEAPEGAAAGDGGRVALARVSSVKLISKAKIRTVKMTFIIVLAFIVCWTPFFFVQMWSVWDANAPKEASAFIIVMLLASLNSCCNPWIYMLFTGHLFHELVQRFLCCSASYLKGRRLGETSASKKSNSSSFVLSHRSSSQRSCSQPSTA", "assay": "Calcium influx in human airway smooth muscle cells after addition of oxytocin", "format": "cell-based", "details": "FIG. 4", "procedure": "In order to determine whether the Oxytocin Receptor expressed on the surface of human airway smooth muscle cells is functional, the amount of influx of calcium was measured. HASMC were serum starved and then either unstimulated or stimulated with IL-13 (50 ng/ml) for 24 hours. The amount of calcium that mobilized Into the cells was measured after addition of oxytocin (100 nM or 500 nM)."}, "[3]": {"test_system": "Oxytocin Receptor (OXTR) mRNA in primary human airway smooth muscle cells", "assay": "Real Time PCR analysis of oxytocin receptor mRNA in cytokine-stimulated primary human airway smooth muscle cells", "format": "cell-based", "details": "for level of OXTR mRNA normalized to 18S mRNA and relative to untreated control (0 hour timepoint): primary HASMC from normal donors, 50 ng/ml; for induced expression of the Oxytocin Receptor normalized to 18S and relative to untreated control (0 hour timepoint): primary HASMC from two normal donors, 10 ng/ml", "procedure": "In order to confirm the microarray finding by an independent means, Real Time PCR technology was employed. Primary human airway smooth muscle cells from “normal” donors were cultured with IL-13 or a naturally occurring mutant form IL-13R130Q (associated with high serum IgE levels) for 0, 6 hours or 18 hours at 50 ng/ml after allowing the cell to rest for 24 hours. Total RNA was isolated, reverse transcribed and used in Real Time PCR analysis for oxytocin receptor using the Applied Biosystems Gene Expression Assay (ID number Hs00168573_m1) on the ABI PRISM® 7900HT Sequence Detection System. At 6 hours, the level of OXTR mRNA normalized to 18S mRNA and relative to untreated control (i.e., 0 hour time point) was 1.95 (Std Dev. 0.41) when cells were stimulated with WT IL-13 and 1.79 (Std Dev. 0.22) when stimulated with R130Q. At 18 hours, the level of OXTR mRNA normalized to 18S mRNA and relative to untreated control (i.e., 0 hour timepoint) was 2.02 (Std Dev. 0.42) when the cells were stimulated with WT IL-13 and 3.58 (Std Dev. 0.74) when stimulated with R130Q.\nPrimary human airway smooth muscle cells from two “normal” donors were cultured with tumor necrosis factor alpha (TNFα) for 0, 6 hours or 18 hours at 10 ng/ml after resting the cells for 24 hours. Total RNA was isolated, reverse transcribed and used in Real Time PCR analysis for the Oxytocin Receptor. TNFα induced the expression of the Oxytocin Receptor by 4.88 (Std Dev. 1.13) at 6 hours and 7.06 (Std. Dev. 1.42) at the 18-hour time point normalized to 18S and relative to untreated control (i.e., 0 hour timepoint)."}}}
{"compound": "ovalbumin: allergen used to immunize and challenge mice in the acute asthma model", "values": [{"measurement": "Oxytocin Receptor mRNA in trachea compared to PBS control", "setting": "[1]", "value": 1.5, "unit": "fold"}]}
{"compound": "IL-13: wild-type interleukin 13, Th2 derived cytokine used to stimulate airway smooth muscle cells", "values": [{"measurement": "effect on oxytocin-induced calcium influx in HASMC", "setting": "[2]; IL-13 50 ng/ml for 24 hours, at low concentrations of oxytocin", "value": "further enhances calcium influx"}, {"measurement": "level of OXTR mRNA normalized to 18S mRNA and relative to untreated control (0 hour timepoint)", "setting": "[3]; 6 hours", "value": "1.95 (Std Dev. 0.41)"}, {"measurement": "level of OXTR mRNA normalized to 18S mRNA and relative to untreated control (0 hour timepoint)", "setting": "[3]; 18 hours", "value": "2.02 (Std Dev. 0.42)"}]}
{"compound": "TNFα", "values": [{"measurement": "induced expression of the Oxytocin Receptor normalized to 18S and relative to untreated control (0 hour timepoint)", "setting": "[3]; 18-hour time point", "value": "7.06 (Std. Dev. 1.42)"}, {"measurement": "induced expression of the Oxytocin Receptor normalized to 18S and relative to untreated control (0 hour timepoint)", "setting": "[3]; 6 hours", "value": "4.88 (Std Dev. 1.13)"}]}
{"compound": "CC[C@H](C)[C@@H]1NC(=O)[C@H](Cc2ccc(O)cc2)NC(=O)[C@@H](N)CSSC[C@@H](C(=O)N2CCC[C@H]2C(=O)N[C@@H](CC(C)C)C(=O)NCC(N)=O)NC(=O)[C@H](CC(N)=O)NC(=O)[C@H](CCC(N)=O)NC1=O", "note": "[oxytocin]", "values": [{"measurement": "Ca influx in human airway smooth muscle cells", "setting": "[2]; serum-starved HASMC, oxytocin 100 nM or 500 nM", "value": "induces Ca influx"}]}
